Laboratory results as given in paper PMC6269967, “Evaluation of the Interaction between Long Telomeric DNA and Macrocyclic Hexaoxazole (6OTD) Dimer of a G-quadruplex Ligand” (Molecules, 2013).
Read-outs that look alike come from different tables or passages of the source. Each block holds one molecule with its values, some of them ahead of it.

Tests used:
telomerase [1] = assay: Telomerase repeat amplification protocol (TRAP) assay, cell-free, PC3 cell lysate; assay type: biochemical; conditions: telomerase reaction 30 min, 20 °C, average of two independent experiments, read-out: telomerase inhibitory activity, IC50
Method: Finally, we examined the telomerase inhibitory activities of the L2H2-6OTD monomer (2) and its dimer 3 in a cell-free system by telomerase repeat amplification protocol (TRAP) assay using PC3 cell lysate. Telomerase is known to elongate various lengths of telomere sequences, and the stabilization ability of each ligand can be evaluated with TRAP assay.
Telomerase repeat amplification protocol (TRAP) assays were conducted as follows; 1 × 10^5 of PC3 cells were lysed with 200 μL of TRAP lysis buffer, placed on ice for 30 min, and centrifuged for 20 min (15,000 rpm, 4 °C). This TRAP lysate (2.0 μL) was mixed with 10×T-PCR buffer (5.0 μL), 2.5 mM dNTPs (1.0 μL), 50 ng/μL TS primer (5'-d[AATCCGTCGAGCAGAGTT]-3', 2.0 μL), 0.2 pM TSNT (5'-d[[…]]-3', 0.5 μL), DEPC (Diethylpyro carbonate) solution in MilliQ water (30 μL), compounds (DMSO solution, 5.0 μL), and placed on ice for 30 min. After the telomerase reactions (30 min, 20 °C), the reacting solution was placed on ice, 2.0 μL of 10 μM NT primer (5'-d[ATCGCTTCTCGGCCTTTT]-3’), 2.0 μL of […] (5'-d[GCGCGG (CTTACC)3CTAACC]-3') and 0.5 μL of Gene Taq (Nippon Gene, Tokyo, Japan) were added. The three-step PCR was performed: 27 cycles of 94 °C for 25 s, 50 °C for 25 s, and 72 °C for 45 s. […] IC50 value was calculated from average of two independent experiments.

telo24 [2] = conditions: telo24 (10 μM), ligand 4 eq.; CD at 295 nm, 50 mM Tris–HCl pH 7.5, 100 mM KCl; 1.0 °C/min; ligand-free Tm 59; ref [53]; cited from earlier work
Description: (§1) Table 1 Tm values (°C) of telomeric DNAs in the absence or presence of G4 ligands 2 and 3 ^a,b,c. | column: Tm

telo48 = conditions: CD at 295 nm, 50 mM Tris–HCl pH 7.5, 100 mM KCl, ref [53], cited from earlier work
Description: as §1

[3] = tested on: long telomeric DNAs telo48, 72, and 96; conditions: ref [53]; cited from earlier work
Description: (§2) For evaluations of interaction and stabilization of telomeric DNA with G4 ligands, telo24 DNA, i.e., four sets of (TTAGGG) repeats consisting of 24 bases in total, has been usually used as a telomeric DNA model, because it is a minimum length able to form one unit of G4 structure.

telo24 [4] = conditions: earlier work of the authors, reference not given; cited from earlier work
Description: as §2

telomerase [5] = conditions: TRAP assay; ref [17],[18],[19],[20],[21],[22]; read-out: telomerase inhibitory activity, IC50; cited from earlier work
Description: At the end of chromosomes, there exists a characteristic region called the telomere. The telomere is composed of double-stranded tandem repeats of (TTAGGG/AATCCC)n sequence amounting to 2–30 kb, to which telomere binding proteins are bound. These sequences are shortened at each cell division, ultimately inducing cell senescence. At the extreme end of these duplex repeats there is a single-stranded 3' overhang, termed the 3' G-tail, consisting of ca. 50−250 nucleotides in total. The G-tail sequence is considered to form G-quadruplexes (G4s), one of the higher-order structures ...

IC50 (telomerase [1]): 15 nM
SMILES: NCCCC[C@@H]1NC(=O)c2coc(n2)-c2coc(n2)-c2coc(n2)[C@H](CCCCN)NC(=O)c2coc(n2)-c2coc(n2)-c2coc1n2 [compound 2]
Tm (telo24 [2]): 75 °C | Tm (telo48; DNA printed telo48 (fourth group), ligand 16 eq., ligand-free Tm 55): 70 °C | Tm (telo48; DNA printed telo48 (third group), ligand 12 eq., ligand-free Tm 55): 73 °C | Tm (telo48; telo48, ligand 8 eq., 1.0 °C/min, ligand-free Tm 57): 76 °C | interaction mode [3]: each telo24 unit in the long telomeric DNAs interacted with two molecules of L2H2-6OTD (2) in an end-stacking mode, and were induced to take anti-parallel-type topology | interaction mode (telo24 [4]): strongly interacts with telo24 to form anti-parallel-type G4 structure in an end-stacking mode with two molecules of 2

SMILES: Cc1oc2nc1-c1nc(co1)-c1nc(co1)-c1nc(co1)-c1nc(co1)-c1nc(co1)C1=NC(CS1)c1nc-2c(C)o1 (centres unmarked) [telomestatin]
IC50 (telomerase [5]): 5 nM
